Legend:
Rattus norvegicus [1] = assay: Inhibition of fructose accumulation in diabetic rat after oral gavage administration incubated at RT for 60 minutes in pH 4.5 by acute test dosed at 10 mg/kg; assay type: functional; conditions: 1 h
Rattus norvegicus [2] = assay: Inhibition of sorbitol accumulation in diabetic rat by acute test dosed at 10 mg/kg; assay type: functional
[3] = molecular target: Aldo-keto reductase family 1 member B1 (Homo sapiens, UniProt P15121); assay: In vitro inhibitroy concentration against Aldose reductase incubated at 24 degree C for 15 minutes in pH 7.0
Rattus norvegicus [4] = assay: Inhibition of fructose accumulation in diabetic rat after oral gavage administration, pH 4.5 by chronic test; assay type: functional
Rattus norvegicus [5] = assay: Inhibition of sorbitol accumulation in diabetic rat by chronic test dosed at 20 mg/kg; assay type: functional
Rattus norvegicus [6] = assay: Inhibition of fructose accumulation in diabetic rat after oral gavage administration incubated at RT for 60 minutes in pH 4.5 by acute test dosed at 20 mg/kg; assay type: functional; conditions: 1 h
Rattus norvegicus [7] = assay: Inhibition of sorbitol accumulation in diabetic rat by acute test dosed at 20 mg/kg; assay type: functional
Rattus norvegicus [8] = assay: Inhibition of fructose accumulation in diabetic rat after oral gavage administration incubated at RT for 60 minutes in pH 4.5 by acute test; dosed at 10 mg/kg; assay type: functional; conditions: 1 h
Rattus norvegicus [9] = assay: Inhibition of fructose accumulation in diabetic rat after oral gavage administration incubated at RT for 60 minutes in pH 4.5 by acute test; dosed at 20 mg/kg; assay type: functional; conditions: 1 h
Rattus norvegicus [10] = assay: Inhibition of sorbitol accumulation in diabetic rat by acute test; dosed at 10 mg/kg; assay type: functional
Rattus norvegicus [11] = assay: Inhibition of sorbitol accumulation in diabetic rat by acute test; dosed at 20 mg/kg; assay type: functional
Rattus norvegicus [12] = assay: Inhibition of fructose accumulation in diabetic rat after oral gavage administration incubated at RT for 60 minutes in pH 4.5 by acute test dosed at 3 mg/kg; assay type: functional; conditions: 1 h
Rattus norvegicus [13] = assay: Inhibition of sorbitol accumulation in diabetic rat by acute test dosed at 3 mg/kg; assay type: functional
Rattus norvegicus [14] = organism: Rattus norvegicus; assay: Inhibition of sorbitol accumulation in diabetic rat by chronic test; assay type: functional
Rattus norvegicus [15] = assay: Inhibition of sorbitol accumulation in diabetic rat by acute test dosed at 50 mg/kg; assay type: functional
Rattus norvegicus [16] = assay: Inhibition of fructose accumulation in diabetic rat after oral gavage administration, pH 4.5 by chronic test dosed at 20 mg/kg; assay type: functional
Rattus norvegicus [17] = assay: Inhibition of fructose accumulation in diabetic rat after oral gavage administration, pH 4.5 by chronic test dosed at 10 mg/kg; assay type: functional
Rattus norvegicus [18] = assay: Inhibition of sorbitol accumulation in diabetic rat by chronic test dosed at 10 mg/kg; assay type: functional
Rattus norvegicus [19] = organism: Rattus norvegicus; assay: Dose required for inhibition of sorbitol accumulation in diabetic rat by acute test; assay type: functional
Rattus norvegicus [20] = assay: Dose required for fructose accumulation in diabetic rat after oral gavage administration incubated at RT for 60 minutes in pH 4.5 by acute test; assay type: functional

Question: With `O=c1ccc(S(=O)(=O)c2cc3ccccc3o2)n[nH]1` as the compound, how does the inhibition in vivo at 10 mg/kg (Rattus norvegicus [1]) read?
Answer: 34%

Question: With `O=S(=O)(c1ccc(O)nn1)c1ccc(Br)cc1F` as the compound, how does the inhibition in vivo at 10 mg/kg (Rattus norvegicus [1]) read?
Answer: 67%

Question: And the inhibition in vivo at 10 mg/kg (Rattus norvegicus [2])?
Answer: 81%

Question: Which IC50 [3] does the source give for `O=c1ccc(S(=O)(=O)c2ccc(F)cc2F)n[nH]1` here?
Answer: 0.87 µM

Question: Which results are given for `O=S(=O)(c1ccc2ccccc2c1)c1ccc(O)nn1`?
Answer: IC50 [3]: 0.36 µM; Inhibition (Rattus norvegicus [4]): 51%; inhibition in vivo at 20 mg/kg (Rattus norvegicus [5]): 74%

Question: For `O=c1ccc(S(=O)(=O)c2cc3cc(Cl)cc(Cl)c3[nH]2)n[nH]1`, which IC50 [3] is on record?
Answer: 0.2 µM

Question: Which IC50 [3] does the source give for `O=c1ccc(S(=O)(=O)Cc2c(F)cccc2Cl)n[nH]1` here?
Answer: 0.026 µM

Question: What about the inhibition in vivo at 20 mg/kg (Rattus norvegicus [6]) of the same compound?
Answer: 45%

Question: What about the inhibition in vivo at 20 mg/kg (Rattus norvegicus [7]) of the same compound?
Answer: 42%

Question: With `O=c1ccc(S(=O)(=O)c2cc(Cl)ccc2Cl)n[nH]1` as the compound, how does the IC50 [3] read?
Answer: 0.073 µM

Question: What about the inhibition in vivo at 10 mg/kg (Rattus norvegicus [8]) of the same compound?
Answer: 36%

Question: What about the inhibition in vivo at 20 mg/kg (Rattus norvegicus [9]) of the same compound?
Answer: 67%

Question: What about the inhibition in vivo at 10 mg/kg (Rattus norvegicus [10]) of the same compound?
Answer: 65%

Question: And the inhibition in vivo at 20 mg/kg (Rattus norvegicus [11])?
Answer: 79%

Question: For `Cc1c(S(=O)(=O)c2ccc(O)nn2)sc2ccc(Cl)cc12`, which IC50 [3] is on record?
Answer: 0.055 µM

Question: What about the inhibition in vivo at 3 mg/kg (Rattus norvegicus [12]) of the same compound?
Answer: 29%

Question: What about the inhibition in vivo at 10 mg/kg (Rattus norvegicus [1]) of the same compound?
Answer: 51%

Question: And the inhibition in vivo at 3 mg/kg (Rattus norvegicus [13])?
Answer: 49%

Question: What about the inhibition in vivo at 10 mg/kg (Rattus norvegicus [2]) of the same compound?
Answer: 83%

Question: Which results are given for `O=S(=O)(c1ccc(O)nn1)c1oc2ccccc2c1-c1ccc(F)cc1`?
Answer: IC50 [3]: 0.049 µM; inhibition in vivo at 10 mg/kg (Rattus norvegicus [1]): 50%; inhibition in vivo at 10 mg/kg (Rattus norvegicus [2]): 66%

Question: For `CC(C)c1c(S(=O)(=O)c2ccc(O)nn2)oc2ccc(Cl)cc12`, which IC50 [3] is on record?
Answer: 0.092 µM

Question: What about the Inhibition (Rattus norvegicus [4]) of the same compound?
Answer: 14%

Question: What about the Inhibition (Rattus norvegicus [14]) of the same compound?
Answer: 48%

Question: How did the IC50 [3] turn out when `O=c1ccc(S(=O)(=O)Cc2c(Cl)cccc2Cl)n[nH]1` was run?
Answer: 0.052 µM

Question: And the inhibition in vivo at 10 mg/kg (Rattus norvegicus [1])?
Answer: 24%

Question: And the inhibition in vivo at 10 mg/kg (Rattus norvegicus [2])?
Answer: 42%

Question: For `O=c1ccc(S(=O)(=O)c2cc3ccc(Cl)cc3[nH]2)n[nH]1`, which IC50 [3] is on record?
Answer: 0.645 µM

Question: Which IC50 [3] does the source give for `O=c1ccc(S(=O)(=O)c2ccc(C(F)(F)F)cc2)n[nH]1` here?
Answer: 0.36 µM

Question: What about the inhibition in vivo at 10 mg/kg (Rattus norvegicus [1]) of the same compound?
Answer: 10%

Question: And the inhibition in vivo at 20 mg/kg (Rattus norvegicus [6])?
Answer: 24%

Question: And the inhibition in vivo at 10 mg/kg (Rattus norvegicus [2])?
Answer: 44%

Question: What about the inhibition in vivo at 20 mg/kg (Rattus norvegicus [7]) of the same compound?
Answer: 67%

Question: For `O=S(=O)(Cc1ccccc1Cl)c1ccc(O)nn1`, which IC50 [3] is on record?
Answer: 0.118 µM

Question: With `O=c1ccc(S(=O)(=O)c2ccc(Br)cc2)n[nH]1` as the compound, how does the IC50 [3] read?
Answer: 0.35 µM

Question: What about the inhibition in vivo at 50 mg/kg (Rattus norvegicus [15]) of the same compound?
Answer: 26%

Question: Which results are given for `O=c1ccc(S(=O)(=O)c2ccc(Cl)cc2)n[nH]1`?
Answer: IC50 [3]: 0.38 µM; inhibition in vivo at 10 mg/kg (Rattus norvegicus [1]): 52%; inhibition in vivo at 10 mg/kg (Rattus norvegicus [2]): 65%

Question: With `O=c1ccc(S(=O)(=O)c2oc3ccc(Cl)cc3c2-c2ccccc2)n[nH]1` as the compound, how does the IC50 [3] read?
Answer: 0.034 µM

Question: What about the inhibition in vivo at 20 mg/kg (Rattus norvegicus [6]) of the same compound?
Answer: 20%

Question: And the inhibition in vivo at 20 mg/kg (Rattus norvegicus [7])?
Answer: 27%

Question: What does the source list for `O=c1ccc(S(=O)(=O)c2ccc(F)cc2)n[nH]1`?
Answer: IC50 [3]: 0.474 µM; inhibition in vivo at 50 mg/kg (Rattus norvegicus [15]): 81%

Question: How did the IC50 [3] turn out when `O=S(=O)(Cc1cccc(C(F)(F)F)c1)c1ccc(O)nn1` was run?
Answer: 0.072 µM

Question: And the inhibition in vivo at 20 mg/kg (Rattus norvegicus [6])?
Answer: 70%

Question: What about the inhibition in vivo at 20 mg/kg (Rattus norvegicus [16]) of the same compound?
Answer: 42%

Question: And the inhibition in vivo at 20 mg/kg (Rattus norvegicus [7])?
Answer: 88%

Question: What about the inhibition in vivo at 20 mg/kg (Rattus norvegicus [5]) of the same compound?
Answer: 65%

Question: How did the IC50 [3] turn out when `CCc1c(S(=O)(=O)c2ccc(O)nn2)oc2ccc(Cl)cc12` was run?
Answer: 0.006 µM

Question: And the inhibition in vivo at 10 mg/kg (Rattus norvegicus [17])?
Answer: 24%

Question: What about the inhibition in vivo at 10 mg/kg (Rattus norvegicus [18]) of the same compound?
Answer: 48%

Question: What does the source list for `O=c1ccc(S(=O)(=O)Cc2cccc(C(F)(F)F)c2F)n[nH]1`?
Answer: IC50 [3]: 0.044 µM; inhibition in vivo at 20 mg/kg (Rattus norvegicus [6]): 56%; inhibition in vivo at 20 mg/kg (Rattus norvegicus [7]): 61%

Question: How did the IC50 [3] turn out when `O=c1ccc(S(=O)(=O)c2cc3ccccc3[nH]2)n[nH]1` was run?
Answer: 0.59 µM

Question: And the inhibition in vivo at 10 mg/kg (Rattus norvegicus [1])?
Answer: 58%

Question: And the inhibition in vivo at 20 mg/kg (Rattus norvegicus [6])?
Answer: 82%

Question: And the inhibition in vivo at 20 mg/kg (Rattus norvegicus [16])?
Answer: 50%

Question: And the inhibition in vivo at 10 mg/kg (Rattus norvegicus [2])?
Answer: 75%

Question: What about the inhibition in vivo at 20 mg/kg (Rattus norvegicus [7]) of the same compound?
Answer: 100%

Question: What about the inhibition in vivo at 20 mg/kg (Rattus norvegicus [5]) of the same compound?
Answer: 67%

Question: For `O=S(=O)(c1ccc(O)nn1)c1ccccc1Cl`, which inhibition in vivo at 10 mg/kg (Rattus norvegicus [1]) is on record?
Answer: 68%

Question: And the inhibition in vivo at 20 mg/kg (Rattus norvegicus [6])?
Answer: 81%

Question: And the inhibition in vivo at 10 mg/kg (Rattus norvegicus [2])?
Answer: 96%

Question: And the inhibition in vivo at 20 mg/kg (Rattus norvegicus [7])?
Answer: 101%

Question: Which IC50 [3] does the source give for `O=c1ccc(S(=O)(=O)c2cc3ccccc3s2)n[nH]1` here?
Answer: 0.18 µM

Question: And the inhibition in vivo at 20 mg/kg (Rattus norvegicus [6])?
Answer: 22%

Question: What about the inhibition in vivo at 20 mg/kg (Rattus norvegicus [7]) of the same compound?
Answer: 46%

Question: What does the source list for `O=S(=O)(c1ccc(O)nn1)c1ccc(F)cc1Cl`?
Answer: inhibition in vivo at 10 mg/kg (Rattus norvegicus [1]): 87%; inhibition in vivo at 20 mg/kg (Rattus norvegicus [6]): 97%; inhibition in vivo at 10 mg/kg (Rattus norvegicus [2]): 95%; inhibition in vivo at 20 mg/kg (Rattus norvegicus [7]): 106%

Question: What does the source list for `O=S(=O)(c1ccc(O)nn1)c1ccc(Cl)cc1Cl`?
Answer: ED50 (Rattus norvegicus [19]): 0.8 mg/kg; ED50 (Rattus norvegicus [20]): 3 mg/kg

Question: `O=S(=O)(c1ccc(O)nn1)c1ccccc1Br` was tested. Which inhibition in vivo at 50 mg/kg (Rattus norvegicus [15]) did it give?
Answer: 55%

— ChEMBL document CHEMBL1141107, “A novel series of non-carboxylic acid, non-hydantoin inhibitors of aldose reductase with potent oral activity in diabetic rat models: 6-(5-chloro-3-methylbenzofuran-2-sulfonyl)-2H-pyridazin-3-one and congeners” (J Med Chem, 2005)
